From patent US10086039B2, “Lamin A, an activator of longevity/anti-aging SIRT1 protein” (THE UNIVERSITY OF HONG KONG, priority 2012, dated 2018) come the findings set out here.

In assay [1] the target is T1, rhSIRT1 binding to rhLamin A (Homo sapiens, UniProt Q96EB6).
T1 construct: purchased Diatheva, Italy (rhLamin A)
T1 sequence (Q96EB6 1-747): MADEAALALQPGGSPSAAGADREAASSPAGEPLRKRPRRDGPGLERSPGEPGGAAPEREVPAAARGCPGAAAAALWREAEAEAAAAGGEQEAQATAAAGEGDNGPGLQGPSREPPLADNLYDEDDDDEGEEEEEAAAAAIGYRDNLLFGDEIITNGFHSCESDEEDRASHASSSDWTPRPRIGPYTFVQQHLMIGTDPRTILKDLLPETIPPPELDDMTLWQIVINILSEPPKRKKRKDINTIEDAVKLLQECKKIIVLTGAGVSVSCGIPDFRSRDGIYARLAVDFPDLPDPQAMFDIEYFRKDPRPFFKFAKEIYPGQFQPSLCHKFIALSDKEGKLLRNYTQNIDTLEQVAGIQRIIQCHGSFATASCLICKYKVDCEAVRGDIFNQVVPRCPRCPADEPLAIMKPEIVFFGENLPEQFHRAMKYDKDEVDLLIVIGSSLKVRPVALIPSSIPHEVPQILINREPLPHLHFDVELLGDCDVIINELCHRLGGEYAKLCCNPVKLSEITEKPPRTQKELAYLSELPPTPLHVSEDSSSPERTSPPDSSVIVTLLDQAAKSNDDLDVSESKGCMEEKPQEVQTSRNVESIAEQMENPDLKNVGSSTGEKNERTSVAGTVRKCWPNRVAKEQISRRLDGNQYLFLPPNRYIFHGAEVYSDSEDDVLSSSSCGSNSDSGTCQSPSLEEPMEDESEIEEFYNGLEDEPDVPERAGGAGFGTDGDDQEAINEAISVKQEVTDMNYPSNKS
T1 sequence (P02545 1-664 partner): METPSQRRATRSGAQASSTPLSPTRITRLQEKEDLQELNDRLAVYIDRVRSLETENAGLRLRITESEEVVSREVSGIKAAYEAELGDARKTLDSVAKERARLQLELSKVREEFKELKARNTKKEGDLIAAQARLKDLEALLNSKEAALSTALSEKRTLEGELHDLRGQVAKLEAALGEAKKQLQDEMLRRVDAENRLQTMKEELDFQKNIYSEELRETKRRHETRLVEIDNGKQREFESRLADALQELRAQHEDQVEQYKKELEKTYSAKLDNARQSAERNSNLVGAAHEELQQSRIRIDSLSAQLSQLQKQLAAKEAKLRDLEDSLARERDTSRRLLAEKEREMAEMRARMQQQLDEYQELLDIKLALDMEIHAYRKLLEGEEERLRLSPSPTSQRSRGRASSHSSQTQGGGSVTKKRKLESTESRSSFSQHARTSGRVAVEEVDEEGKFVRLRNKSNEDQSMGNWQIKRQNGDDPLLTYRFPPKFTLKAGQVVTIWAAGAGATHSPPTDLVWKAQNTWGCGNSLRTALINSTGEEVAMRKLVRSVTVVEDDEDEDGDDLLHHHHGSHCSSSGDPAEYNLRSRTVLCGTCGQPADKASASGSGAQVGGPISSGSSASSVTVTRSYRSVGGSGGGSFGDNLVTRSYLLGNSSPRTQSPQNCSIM
Put plainly: Pull-down of rhSIRT1 with rhLamin A in test tube (anti-lamin A immunoprecipitation). The settings on record: in the test tube, co-immunoprecipitation. The protocol:
For co-immunoprecipitation, cells were lysed into pre-chilled RIPA buffer containing 300 mM or 500 mM NaCl and protease inhibitors. Primary antibodies or appropriate control IgGs were added to the lysate and incubated for 2 h on a rocking platform at 4° C. before Agarose beads were added and incubated O/N. The beads were washed twice with RIPA buffer, resuspended into Laemmli buffer and boiled, and protein suspension was collected by centrifugation and stored for further analysis.
Consistently, ectopic EGFP-SIRT1 and DsRed-lamin A co-existed in the nuclear interior (FIG. 1D). This interaction seems specific to nuclear SIRT1 as neither cytoplasmic SIRT1 nor mitochondrial SIRT5 was detected in the anti GFP-lamin A immunoprecipitates (FIG. 6C). In addition, SIRT1 physically interacts with lamin A as recombinant human SIRT1 (rhSIRT1) was pulled down by recombinant human lamin A (rhLamin A) in a test tube (FIG. 1E).

For the next assay, the system named is Zmpste24−/− MEFs. Put plainly: SA-β-galactosidase senescence assay in MEFs. The assay is classed as cell-based, mouse. The settings on record: resveratrol-treated vs saline-treated. The protocol: SA-β-galactosidase assay was performed using a Cellular Senescence Assay Kit (Chemicon International, CA, USA), following the manufacturer's instructions. For MEFs, resveratrol was supplemented in the complete medium at passage 4 and SA-β-galactosidase assay was performed at passage 6. To quantify SA-β-galactosidase staining, the blue-dyed precipitate was extracted with 100 μl DMSO and the absorbance at 415 nm was recorded.

The target in assay [2] is T2, rhSIRT1 association with NM (Homo sapiens, UniProt Q96EB6).
T2 sequence (Q96EB6 1-747): T1 sequence (Q96EB6 1-747)
The experiment in a line: Association of rhSIRT1 with insoluble NM fraction in test tube. The assay is classed as binding. The settings on record: NM from wild-type and Zmpste24−/− cells, resveratrol 10 μM.

A further assay relates to Zmpste24−/− mice. The experiment in a line: HSC population in bone marrow of treated Zmpste24−/− mice (FACS). The settings on record: resveratrol 20 μg/ml in drinking water. In kind it is in vivo, mouse. The protocol: Zmpste24^-/- mice have been described previously ([…] et al., 2002). Mouse experimentation was performed in accordance with the guidelines of the Committee on the Use of Live Animals in Teaching and Research (CULATR) at the University of Hong Kong. New-born Zmpste24^-/- mice and wild-type controls were fed with resveratrol (20 μg/ml) or N-acetyl Cysteine (1 mg/ml) in drinking water. The survival of resveratrol-treated, NAC-treated, or vehicle-treated Zmpste24^-/- mice was recorded and their body weight was monitored weekly. The trabecular bone organization and bone mineral density were determined by micro-CT. The survival rate was analyzed by Kaplan-Meier method and statistical comparison was performed by Log-rank (Mantel-Cox) Test. To analyze hematopoietic stem cells, mononucleated cells were collected by flushing femurs and tibias with staining medium (HBSS supplemented with 2% FBS) and stained with biotin-coupled lineage markers, Biotin-Flt3, PE-Sca-1, APC-c-Kit, and then SAv-PerCP. FACS profile analyses were performed using a BD FACSCalibur.

On to `Oc1ccc(C=Cc2cc(O)cc(O)c2)cc1` [resveratrol], for which, in assay [1], the “binding of rhSIRT1 to rhLamin A” value is reported as “enhanced the binding”. For the same compound, the “β-galactosidase activity (senescence)” value in the assay with Zmpste24−/− MEFs was “no obvious difference”. In addition, the “association of rhSIRT1 with NM” value in assay [2] is “enhanced the association”. Also, the “early decline in HSCs” value with Zmpste24−/− mice is “rescued”.
